In paper PMC7059199, “Identification and structural insight of an effective PPARγ modulator with improved therapeutic index for anti-diabetic drug discovery” (Chemical Science, 2020):

Legend:
full-length hPPARγ = molecular target: T1, full-length hPPARγ (Homo sapiens, UniProt P37231); experiment: PPARγ-activated luciferase reporter (transactivation) assay in Cos-7 cells; format: cell-based; conditions: at 33 μM and 100 μM
T1 construct: 50 ng of full-length hPPARγ plasmids; expressed in transfected cells; host or cells: Cos-7 cells (ATCC)
T1 sequence (P37231 1-505): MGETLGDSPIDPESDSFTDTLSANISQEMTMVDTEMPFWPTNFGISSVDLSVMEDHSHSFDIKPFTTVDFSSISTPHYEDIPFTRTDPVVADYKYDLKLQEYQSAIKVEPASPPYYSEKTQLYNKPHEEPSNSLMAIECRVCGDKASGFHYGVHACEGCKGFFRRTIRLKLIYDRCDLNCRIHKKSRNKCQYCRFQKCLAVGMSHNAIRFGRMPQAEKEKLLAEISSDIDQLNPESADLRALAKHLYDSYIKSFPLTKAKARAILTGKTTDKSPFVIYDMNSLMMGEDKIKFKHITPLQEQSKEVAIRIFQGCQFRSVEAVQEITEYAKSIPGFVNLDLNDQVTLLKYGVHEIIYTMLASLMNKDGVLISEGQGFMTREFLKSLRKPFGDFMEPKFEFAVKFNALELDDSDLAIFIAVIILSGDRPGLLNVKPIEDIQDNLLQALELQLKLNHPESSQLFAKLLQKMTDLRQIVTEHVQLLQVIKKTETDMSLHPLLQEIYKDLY
Procedure: Fig. 3 Luciferase reporter assay of PPARγ activation in Cos-7 cells. The luciferase activity was normalized against renilla luciferase units. Fold activation was calculated against DMSO with no ligand treatment. […] Concentration is represented as log10 scale (n = 3, error bars = SEM). […]
and 25 mM of imidazole) per 6 liters of cells, and passed three times through a French press with pressure set at […]. The lysate was cleared by centrifugation at 48,000 x g for 30 minutes and the supernatant was purified by loading on 2x5 mL HiLoad Nickel HP columns (GE Healthcare). The 6×His SUMO tag was removed by cleavage with the Sumo protease Ulp1 at a protease: protein ratio of 1:1000), and the tag was separated from the PPARγ LBD by a second pass through the Nickel column. PPARγ monomer was further purified by gel filtration (HiLoad 26/60 Superdex 200 (GE Healthcare)) with 20 mM of Tris (pH 8.0), 100 mM of NaCl, and 5 mM of DTT as buffer. The PPARγ LBD protein was complexed with PGC1α1 peptide […]
([…]) at a 1:1.2 molar ratio and with compound at a 1:5 molar ratio and then filter-concentrated to 10 mg/mL.
Cell-based transactivation assay […]
Excitation of the terbium at 340 nm results in FRET to the fluorescent tracer, with emissions detected at 520 nm and 495 nm. […]
The inhibition constant (ki) for a competitor was calculated by applying the […]

[1] = Pharmacokinetic profile in mice; format: in vivo
Procedure: VSP-77 was further evaluated for its preliminary pharmacokinetic profile in mice following oral (10 mg kg^–1) and intravenous (5 mg kg^–1) administration (Table S2 ^†).

3T3-L1 cells = experiment: 3T3-L1 adipocyte differentiation assay (Oil Red O staining); format: cell-based, mouse
Procedure: One of the best documented side-effects of the PPARγ agonist drugs is weight gain as PPARγ is the key activator of adipogenesis. To determine whether VSP-77 promotes adipogenesis, we treated mouse fibroblast 3T3-L1 cells with 100 μM of VSP-77. […] Cells were incubated with Oil Red O, which stains adipocytes red.
Fig. 6 3T3-L1 adipocyte differentiation assay. Oil Red O staining of 3T3-L1 fibroblast cells after differentiating with different ligands for 2 days. […]
Adipocyte differentiation assay
The adipocyte differentiation assay was performed with NIH 3T3-L1 preadipocytes obtained from ATCC. The 3T3-L1 preadipocytes were maintained in DMEM containing 10% FBS and antibiotics. For differentiation DMI (Dexamethazone 1 μM, 3-isobutyl-1-methyxanthine (IBMX) 0.5 mM and Insulin167 nM) and 10 μM of rosiglitazone were used as positive controls for the assay. VSP-77 was used at a 100 μM concentration. All the treatments have insulin at 167 nM concentration. Media with DMSO was used as a negative control. Differentiation was induced by treating post-confluent cultures with media containing the respective ligands for two days.
Cells were stained with Oil Red O to estimate the lipid accumulation. The images were analyzed using ImageJ (National Institutes of Health). […]

[2] = mouse, in vivo, intravenous 5 mg/kg
[3] = mouse, in vivo, oral (ig) 10 mg/kg
[4] = oral 10 mg/kg, unit as printed in main text

- agonistic activity (fold activation of luciferase reporter) (full-length hPPARγ): weakly agonistic
- AUC(0-inf) [1, 2]: 5030 ng·h/mL
- AUC(0-t) [1, 2]: 5000 ng·h/mL
- MRT [1, 2]: 1.11 h
- half-life [1, 2]: 1.07 h
- AUC(0-inf) [1, 3]: 5880 ng·h/mL
- AUC(0-t) [1, 3]: 5770 ng·h/mL
- Cmax [1, 3]: 2920 ng/mL
- MRT [1, 3]: 1.94 h
- Tmax [1, 3]: 0.5 h
- half-life [1, 3]: 1.25 h
- bioavailability ([1]; mouse, in vivo, oral (ig) 10 mg/kg vs iv 5 mg/kg, read-out: F (oral bioavailability)): 57.7%
- AUC0–t [1, 4]: 5772 ng mL^–1 h^–1
- AUC0–∞ [1, 4]: 5877 ng mL^–1 h^–1
SMILES: CCCCCCCC(OCC(=O)O)c1ccc(Cl)cc1 (centres unmarked) [VSP-77]
- adipogenesis (in words) (3T3-L1 cells; 100 μM): does not activate adipogenesis
- total number of adipocytes when added to DMI- or Rosi-treated cells (3T3-L1 cells; VSP-77 100 μM): clear decrease
- % Area stained by Oil Red O (3T3-L1 cells; VSP-77 100 μM, 2 days): 0%
